According to patent publication EP2742937A1, “Compositions for use in the treatment of bacterial infections” (LIONEX Diagnostics and Therapeutics GmbH, priority 2012, dated 2014):
Values after ≈ are worked out from the molar mass of the structure shown. Where two headings read alike, the source gives them in different places.

Key:
[1] = in words; Haebich & Von Nussbaum, 2009; cited from earlier work
[2] = test system: M. tuberculosis H37Rv; experiment: Resazurin microtiter assay (REMA), MIC; assay type: cell-based; conditions: for synergistic effect with ethambutol: in words; for MIC: Mycobacterium tuberculosis
[3] = test system: L929 cell line; experiment: MTT cell proliferation assay (in vitro toxicity); assay type: cell-based, mouse; conditions: for IC50: Mus musculus, L929, 120 h
[4] = test system: M. bovis BCG; experiment: microbe, parasite or virus in culture; assay type: cell-based, Mycobacterium bovis BCG; conditions: for MIC With medium containing 50 % FBS / MIC in 100% medium: M. bovis BCG, resazurin assay; for MIC With medium containing 50 % FBS: 50 % fetal bovine serum; for MIC in 100% medium: no FBS; for MIC: Mycobacterium tuberculosis variant bovis BCG, BCG, read-out: MIC With medium containing 50 % FBS
[5] = MTT assay after 5 days, individual substances
[6] = H37RV, REMA, individual substance, read-out: MIC (µg/ml) against M. tuberculosis H37Rv Individual substance
[7] = MTT assay after 5 days, individual substances, read-out: In vitro toxicity with L929 cell line IC50
[8] = H37RV, read-out: MIC (µg/ml) against M. tuberculosis H37Rv With medium containing ethambutol

| Compound | serum protein binding [1] | MIC (µg/ml) against M. tuberculosis H37Rv With medium containing ethambutol ([2]; REMA, Ethambutol at Conc. 0.3 µg/ml in medium) | MIC (µg/ml) against M. tuberculosis H37Rv Individual substance ([2]; REMA, individual substance) | synergistic effect with ethambutol [2] | In vitro toxicity with L929 cell line IC50 [3, 5] | MIC With medium containing 50 % FBS [4] | MIC in 100% medium [4] | MIC [4] | MIC [2, 6] | IC50 [3, 7] | FIC ([2]; H37RV) | MIC (µg/ml) against M. tuberculosis H37Rv Individual substance ([2]; H37RV) | MIC ([2]; H37RV, read-out: MIC (µg/ml) against M. tuberculosis H37Rv Individual substance) | MIC [2, 8] | In vitro toxicity with L929 cell line IC50 (µg/ml) [3, 5] | IC50 ([3]; read-out: In vitro toxicity with L929 cell line IC50 (µg/ml)) | MIC (µg/ml) against M. tuberculosis H37Rv Individual substance ([2]; REMA, individual substance, listed as ripostatin) |
| --- | --- | --- | --- | --- | --- | --- | --- | --- | --- | --- | --- | --- | --- | --- | --- | --- | --- |
| C/C=C/C/C=C(\C)C(O)CC/C(C)=C/C=C(\C)C(=O)c1c(O)cc([C@H](C)CC/C=C/NC(=O)OC)oc1=O (stereo partly drawn) [Corallopyronin] | high serum protein binding | 12.5 µg/mL (≈ 23.7 µM) | 12.5 µg/mL (≈ 23.7 µM) | did not show synergism with ethambutol | 25 µg/mL |  |  |  |  |  |  |  |  |  |  |  |  |
| CC[C@@H](CO)NCCN[C@@H](CC)CO [Ethambutol] |  |  |  |  |  | not affected by the addition of the FBS | 2.5 | 2.5 µg/mL (≈ 12.2 µM) | 1.6 µg/mL (≈ 7.83 µM) | > 100 µg/mL |  |  |  |  |  |  |  |
| CCCC(C)=CC=C(C)C(=O)c1c(O)cc(C(C)CCC=CNC(=O)OC)oc1=O (stereo not drawn) [Myxopyronin A] | high serum protein binding |  |  | synergistic effect |  | did not inhibit the growth of M. bovis BCG | 6.25 | > 25 µg/mL |  |  | 0.64 | 6.25 µg/mL (≈ 15 µM) | 6.25 µg/mL (≈ 15 µM) | 3.12 µg/mL (≈ 7.48 µM) | did not inhibit L929 cell proliferation at all tested concentrations | > 100 µg/mL |  |
| C/C(=C\Cc1ccccc1)CCC(=O)C[C@H]1C[C@H](O)C/C(C)=C/C/C=C/C/C(CC(=O)O)=C\C(=O)O1 [Ripostatin] |  |  | no inhibition up to 25 µg/ml | did not show synergism with ethambutol |  |  |  |  | > 25 µg/mL | > 100 µg/mL |  |  |  | > 25 µg/mL |  |  | > 25 µg/mL |
